Experimental data taken from patent US20140073761A1, “CONJUGATES CONTAINING HYDROPHILIC SPACER LINKERS” (priority 2007, published 2014).
*1 amine or outer side, *2 acyl side, *3 side chain or, on linkers, in order; H or OH if unused. Where a SMILES comes first, the peptide text is derived from it. [ ]: non-standard residue; d: D form. The star is where a group is joined. X1 = CC[C@]1(O)C[C@H]2CN(CCc3c([nH]c4ccccc34)[C@@](C(=O)OC)(c3cc4c(cc3OC)N(C)[C@H]3[C@@](O)(C(=O)NNC(=O)OCCS*)[C@H](O)[C@]5(CC)C=CCN6CC[C@]43[C@@H]65)C2)C1; Nle(3R-OH,4S-OH,5R-OH,6-OH) = N[C@H](C(=O)O)[C@@H](O)[C@H](O)[C@H](O)CO; Pteroyl = Nc1nc2ncc(CNc3ccc(C(=O)*)cc3)nc2c(=O)[nH]1; γGlu = O=C(O)[C@H](CCC(=O)[*:2])N[*:1]

Key:
[1] = test system: folate receptor-positive KB cells; format: cell-based; conditions: excess folic acid
Protocol: Inhibition of Cellular DNA Synthesis. The compounds described herein were evaluated using an in vitro cytotoxicity assay that predicts the ability of the drug to inhibit the growth of folate receptor-positive KB cells. The compounds were comprised of folate linked to a respective chemotherapeutic drug, as prepared according to the protocols described herein. […] The cells were then rinsed once with fresh culture medium and incubated in fresh culture medium for 72 hours at 37° C. Cell viability was assessed using a ^3H-thymidine incorporation assay.
(§1) In Vitro Concentration-Dependent Cytotoxic Activity. Cells were heavily seeded in 24-well Falcon plates and allowed to form nearly confluent monolayers overnight. Thirty minutes prior to the addition of test article, spent medium was aspirated from all wells and replaced with fresh folate-free RPMI (FFRPMI). […] Treated cells were pulsed for 2 h at 37° C., rinsed 4 times with 0.5 mL of media, and then chased in 1 mL of fresh media up to 70 h. Spent media was aspirated from all wells and replaced with fresh media containing 5 μCi/mL ^3H-thymidine. Following a further 2 h 37° C. incubation, cells were washed 3 times with 0.5 mL of PBS and then treated with 0.5 mL of ice-cold 5% trichloroacetic acid per well. After 15 min, the trichloroacetic acid was aspirated and the cell material solubilized by the addition of 0.5 mL of 0.25 N sodium hydroxide for 15 min. Four hundred and fifty μL of each solubilized sample were transferred to scintillation vials containing 3 mL of Ecolume scintillation cocktail and then counted in a liquid scintillation counter. Final tabulated results were expressed as the percentage of ^3H-thymidine incorporation relative to untreated controls.
(§2) As shown in the figures herein, dose-dependent cytotoxicity was measurable, and in most cases, the IC50 values (concentration of drug conjugate required to reduce ^3H-thymidine incorporation into newly synthesized DNA by 50%) were in the low nanomolar range. […] The following table illustrated data for selected compounds against KB cells and against RAW264.7 cells

[2] = FIG. 6B, 7B, 8B; M109 tumors, Balb/c mice; 2 μmol/kg TIW two weeks
Protocol: Toxicity as Measured by Weight Loss. The percentage weight change was determined in mice (5 mice/group) on selected days post-tumor inoculation (PTI), compared to controls, and graphed.

[3] = rat, in vivo
From the text: Comparison of Bile Clearance (% ID) of unconjugated drug, drug conjugate lacking a hydrophilic spacer linker, and conjugates described herein.

RAW264.7 cells = format: cell-based; conditions: for RAW264.7 Cells Competable with xs folate: excess folic acid
Protocol: as §1, §2

Structure (SMILES)	KB Cells Competable with xs folate [1]	RAW264.7 Cells Competable with xs folate (RAW264.7 cells)	further results
CCC(C)[C@H](NC(=O)[C@H]1CCCCN1C)C(=O)N(COC(=O)CC(C)C)[C@H](C[C@@H](OC(C)=O)c1nc(C(=O)N[C@@H](Cc2ccc(O)cc2)C[C@H](C)C(=O)NNC(=O)OCSSC[C@H](NC(=O)[C@H](CCC(=O)NC[C@H](O)[C@@H](O)[C@H](O)[C@H](O)CO)NC(=O)[C@H](CCC(=O)O)NC(=O)[C@H](CCC(=O)NC[C@H](O)[C@@H](O)[C@H](O)[C@H](O)CO)NC(=O)[C@H](CCC(=O)O)NC(=O)[C@H](CCC(=O)NC[C@H](O)[C@@H](O)[C@H](O)[C@H](O)CO)NC(=O)CC[C@H](NC(=O)c2ccc(NCc3cnc4nc(N)[nH]c(=O)c4n3)cc2)C(=O)O)C(=O)O)cs1)C(C)C (stereo partly drawn) [EC0543]	Yes		
CC[C@]1(O)C[C@H]2CN(CCc3c([nH]c4ccccc34)[C@@](C(=O)OC)(c3cc4c(cc3OC)N(C)[C@H]3[C@@](O)(C(=O)NNC(=O)OCCSSC[C@H](NC(=O)[C@@H](NC(=O)[C@H](CC(=O)O)NC(=O)[C@@H](NC(=O)[C@H](CC(=O)O)NC(=O)[C@@H](NC(=O)[C@H](CC(=O)O)NC(=O)[C@@H](NC(=O)CC[C@H](NC(=O)c5ccc(NCc6cnc7nc(N)[nH]c(=O)c7n6)cc5)C(=O)O)[C@@H](O)[C@H](O)[C@H](O)CO)[C@@H](O)[C@H](O)[C@H](O)CO)[C@@H](O)[C@H](O)[C@H](O)CO)[C@@H](O)[C@H](O)[C@H](O)CO)C(=O)O)[C@H](O)[C@]5(CC)C=CCN6CC[C@]43[C@@H]65)C2)C1 [EC0434, Tetra-Saccharo-Tris-Asp-Folate Vinblastine Conjugate] ({Pteroyl-γGlu}-[Nle(3R-OH,4S-OH,5R-OH,6-OH)]D[Nle(3R-OH,4S-OH,5R-OH,6-OH)]D[Nle(3R-OH,4S-OH,5R-OH,6-OH)]D[Nle(3R-OH,4S-OH,5R-OH,6-OH)]C(X1)-OH)			gross toxicity (percentage body weight change) [2]: no gross toxicity was observed; percent of total dose in the bile (total DAVLBH biliary excretion) ([3]; iv): 2.8%
CC(=O)O[C@H]1C(=O)[C@@]2(C)[C@H]([C@H](OC(=O)c3ccccc3)[C@]3(O)C[C@H](OC(=O)[C@H](OC(=O)COc4ccc(C(=O)NNC(=O)OCCSSC[C@H](NC(=O)[C@H](CCC(=O)NC[C@H](O)[C@@H](O)[C@H](O)[C@H](O)CO)NC(=O)[C@H](CCC(=O)O)NC(=O)[C@H](CCC(=O)NC[C@H](O)[C@@H](O)[C@H](O)[C@H](O)CO)NC(=O)[C@H](CCC(=O)O)NC(=O)[C@H](CCC(=O)NC[C@H](O)[C@@H](O)[C@H](O)[C@H](O)CO)NC(=O)CC[C@H](NC(=O)c5ccc(NCc6cnc7nc(N)[nH]c(=O)c7n6)cc5)C(=O)O)C(=O)O)cc4)[C@@H](NC(=O)c4ccccc4)c4ccccc4)C(C)=C1C3(C)C)[C@]1(OC(C)=O)CO[C@@H]1C[C@@H]2O [EC0561]	Yes		
CC[C@]1(O)C[C@@H]2CN(CCc3c([nH]c4ccccc34)[C@@](C(=O)OC)(c3cc4c(cc3OC)N(C)[C@H]3[C@@](O)(C(=O)NN)[C@H](O)[C@]5(CC)C=CCN6CC[C@]43[C@@H]65)C2)C1 [DAVLBH, deacetylvinblastine monohydrazide, reference compound]			Bile clearance (% ID) [3]: 58.0 % ID
Nc1nc(N)c2nc(CNc3ccc(C(=O)N[C@@H](CCC(=O)OCCSSC[C@H](NC(=O)[C@H](CCC(=O)NC[C@H](O)[C@@H](O)[C@H](O)[C@H](O)CO)NC(=O)[C@H](CCC(=O)O)NC(=O)[C@H](CCC(=O)NC[C@H](O)[C@@H](O)[C@H](O)[C@H](O)CO)NC(=O)[C@H](CCC(=O)O)NC(=O)[C@H](CCC(=O)NC[C@H](O)[C@@H](O)[C@H](O)[C@H](O)CO)NC(=O)CC[C@H](NC(=O)c4ccc(NCc5cnc6nc(N)[nH]c(=O)c6n5)cc4)C(=O)O)C(=O)O)C(=O)O)cc3)cnc2n1 [EC0551]		Yes	IC50 (RAW264.7 cells): 1 nM
CO[C@H]1C[C@@H]2CC[C@@H](C)[C@@](O)(O2)C(=O)C(=O)N2CCCC[C@H]2C(=O)O[C@H]([C@H](C)C[C@@H]2CC[C@@H](O)[C@H](OC)C2)CC(=O)[C@H](C)/C=C(\C)[C@@H](OC(=O)OCCSSC[C@H](NC(=O)[C@H](CCC(=O)NC[C@H](O)[C@@H](O)[C@H](O)[C@H](O)CO)NC(=O)[C@H](CCC(=O)O)NC(=O)[C@H](CCC(=O)NC[C@H](O)[C@@H](O)[C@H](O)[C@H](O)CO)NC(=O)[C@H](CCC(=O)O)NC(=O)[C@H](CCC(=O)NC[C@H](O)[C@@H](O)[C@H](O)[C@H](O)CO)NC(=O)CC[C@H](NC(=O)c2ccc(NCc3cnc4nc(N)[nH]c(=O)c4n3)cc2)C(=O)O)C(=O)O)[C@@H](OC)C(=O)[C@H](C)C[C@H](C)/C=C/C=C/C=C/1C [EC0552]		Yes	
CNC(=O)[C@H](Cc1cn(CCO[C@@H]2OC(C(=O)O)C(O)[C@H](O)C2O)nn1)NC(=O)CC[C@H](NC(=O)c1ccc(NCc2cnc3nc(N)nc(O)c3n2)cc1)C(=O)O (stereo partly drawn) [EC0423]			Bile clearance (% ID) [3]: 3.9 % ID
COc1ccc(C[C@H]2NC(=O)/C=C/C[C@@H]([C@H](C)[C@@H](OC(=O)OCCSSC[C@H](NC(=O)[C@@H](NC(=O)[C@H](CC(=O)O)NC(=O)[C@@H](NC(=O)[C@H](CC(=O)O)NC(=O)[C@@H](NC(=O)CC[C@H](NC(=O)c3ccc(NCc4cnc5nc(N)[nH]c(=O)c5n4)cc3)C(=O)O)[C@@H](O)[C@H](O)[C@H](O)CO)[C@@H](O)[C@H](O)[C@H](O)CO)[C@@H](O)[C@H](O)[C@H](O)CO)C(=O)O)[C@@H](Cl)c3ccccc3)OC(=O)[C@H](CC(C)C)OC(=O)C(C)(C)CNC2=O)cc1Cl [EC0262]	Yes		
CO[C@H]1C[C@@H]2CC[C@@H](C)[C@@](O)(O2)C(=O)C(=O)N2CCCC[C@H]2C(=O)O[C@H]([C@H](C)C[C@@H]2CC[C@@H](O)[C@H](OC)C2)CC(=O)[C@H](C)/C=C(\C)[C@@H](OC(=O)OCCSSCCC(=O)NC[C@@H]2NC(=O)[C@@H](NC(=O)[C@H](CCC(=O)O)NC(=O)[C@H](CCC(=O)NC[C@H](O)[C@@H](O)[C@H](O)[C@H](O)CO)NC(=O)[C@H](CCC(=O)O)NC(=O)[C@H](CCC(=O)NC[C@H](O)[C@@H](O)[C@H](O)[C@H](O)CO)NC(=O)CC[C@H](NC(=O)c3ccc(NCc4cnc5nc(N)[nH]c(=O)c5n4)cc3)C(=O)O)CCC(=O)NC[C@H](O)[C@@H](O)[C@H](O)[C@H]3COB(O3)[C@H](CC(C)C)NC(=O)[C@H](Cc3ccccc3)NC(=O)c3cnc(cn3)CSSC[C@@H](C(=O)O)NC2=O)[C@@H](OC)C(=O)[C@H](C)C[C@H](C)/C=C/C=C/C=C/1C [EC0563]		Yes	
CO[C@H]1C[C@@H]2CC[C@@H](C)[C@@](O)(O2)C(=O)C(=O)N2CCCC[C@H]2C(=O)O[C@H]([C@H](C)C[C@@H]2CC[C@@H](OCCOC(=O)OCCSSCCC(=O)NC[C@@H]3NC(=O)[C@@H](NC(=O)[C@H](CCC(=O)O)NC(=O)[C@H](CCC(=O)NC[C@H](O)[C@@H](O)[C@H](O)[C@H](O)CO)NC(=O)[C@H](CCC(=O)O)NC(=O)[C@H](CCC(=O)NC[C@H](O)[C@@H](O)[C@H](O)[C@H](O)CO)NC(=O)CC[C@H](NC(=O)c4ccc(NCc5cnc6nc(N)[nH]c(=O)c6n5)cc4)C(=O)O)CCC(=O)NC[C@H](O)[C@@H](O)[C@H](O)[C@H]4COB(O4)[C@H](CC(C)C)NC(=O)[C@H](Cc4ccccc4)NC(=O)c4cnc(cn4)CSSC[C@@H](C(=O)O)NC3=O)[C@H](OC)C2)CC(=O)[C@H](C)/C=C(\C)[C@@H](O)[C@@H](OC)C(=O)[C@H](C)C[C@H](C)/C=C/C=C/C=C/1C [EC0582]		Yes	
